Values of other authors, collected in US20240100001A1, “DENATONIUM SALT FOR USE IN PREVENTING, PREVENTING PROGRESSION AND TREATING FATTY LIVER DISEASES” (AARDVARK THERAPEUTICS INC., priority 2021, published 2024).
Like-named read-outs stand apart in the source and are kept apart here.

How the values were obtained:
[1] = test system: C57BL/6 male mice fed with the methionine- and choline-deficient (MCD) diet for 4 weeks; settings: 5 mg/kg/day PO for the last 2 weeks; cited from earlier work
[2] = test system: Male DIAMOND mice fed high fat sugar water diet (WDSW) for 24 weeks; settings: cited from earlier work
[3] = test system: Male C57BL/6N mice fed choline-deficient, L-amino acid-defined, high-fat diet (CDAHFD); settings: cited from earlier work
[4] = test system: Male C57BL/6 mice fed a CDAHFD diet for 12 weeks; settings: cited from earlier work
[5] = test system: Male C57BL/6J mice fed with the AMLN diet for 50 weeks; settings: 30 mg/kg, PO, QD for 8 weeks; cited from earlier work
[6] = test system: Male C57BL/6J mice fed high fat diet for 20 weeks; settings: 0.3 mg/kg/day PO for 20 weeks; cited from earlier work
[7] = test system: C57Bl6/J mice fed a MCD diet for 3 weeks; settings: 10 or 30 mg/kg, PO, QD for 3 weeks; cited from earlier work
[8] = test system: C57BL/6 mice treated with 60% high fat diet for 36 weeks; settings: 0.3-3 mg/kg/day PO for 24 days; cited from earlier work
[9] = test system: Male C57BL/6 mice fed a CDAHFD diet for 20 weeks; settings: cited from earlier work
[10] = test system: Male C57BL/6 mice fed a fast food diet (FF diet) for 330 days; settings: dose unknown, cited from earlier work
[11] = test system: AMLN model: C57BL/6J mice placed on AMLN diet for 30 weeks; settings: 0.03-0.9 mg/kg for the last 4 weeks; cited from earlier work
[12] = test system: A mouse model of diet-induced NASH; settings: 10 mg/kg/day PO for eight weeks; cited from earlier work
NAFLD/NASH = settings: cited from earlier work; for benefit in NAFLD/NASH: agents tried so far
[13] = test system: patients with NASH and IGT or T2DM; settings: women and men; cited from earlier work
[14] = test system: FXR-deficient mice placed on a high-fat, high-fructose, highcholesterol diet (HFFCD) for 50 weeks; settings: cited from earlier work
[15] = test system: STAM model: Streptozotocin-injected 2-day old male C57BL/6 mice fed high-fat diet; settings: cited from earlier work
[16] = test system: STAM model: Streptozotocin-injected 2-day old male C57BL/6 mice fed high-fat diet; settings: 3 mg/kg, twice weekly, cited from earlier work
[17] = test system: Male C57BL/6J mice fed with the AMLN diet for 32 weeks; settings: SC for 12 weeks, Semaglutide 10 nmol/kg, cited from earlier work
patients with NASH = settings: cited from earlier work
[18] = 30 mg/kg/day PO QD for the last 8 weeks
[19] = treatment started after FF diet induction for 240 days
[20] = 60 mg/kg IV twice a week for 4 weeks, early treatment cohort
[21] = SC for 2 weeks (start at Week 7)
[22] = ALT-801 5 or 10 nmol/kg (both doses)

## CCCCCCCCCCCCCCCCCCCC(=O)N[C@H]1CC[C@@]2(C)[C@@H](C1)C[C@@H](O)[C@@H]1[C@@H]2C[C@H](O)[C@]2(C)[C@@H]([C@H](C)CCC(=O)O)CC[C@@H]12 [Aramchol]
[1]
  features of steatohepatitis: Reduced
  fibrosis: Reduced
  protein expression of COL1A1 in the liver: decreased protein

## COc1cccc(C(=O)COc2ccc(CC3SC(=O)NC3=O)cc2)c1 (centres unmarked) [Azemiglitazone]
[2]; 30 mg/kg/day PO QD for the last 8 weeks (16-24 weeks)
  ballooning: decreased
[2]; [18]
  NASH CRN fibrosis score: group was 0.
  mice progressed from simple steatosis to NASH compared to the control group: fewer MSDC-
  serum level of ALT: reduced serum
  serum level of AST: reduced serum
  serum level of fasting insulin: reduced serum
[2]; 30 mg/kg/day PO QD for the last 8 weeks, trended lower
  NAFLD Activity Score (NAS): (NAS) trended

## CCCCOCCOc1ccc(-c2ccc3c(c2)/C=C(/C(=O)Nc2ccc([S@@+]([O-])Cc4cncn4CCC)cc2)CCCN3CC(C)C)cc1 [Cenicriviroc]
[3]; 30 mg/kg/day for 4 or 14 weeks
  intrahepatic accumulation of inflammatory macrophages: Inhibited
[3]; only with 30 mg/kg/day for 14 weeks, IP
  fibrosis on histopathology: improved

## CC[C@H]1[C@@H](O)[C@@H]2[C@H](CC[C@]3(C)[C@@H]([C@H](C)CCNC(=O)NS(=O)(=O)c4ccc(C(C)(C)C)cc4)CC[C@@H]23)[C@@]2(C)CC[C@@H](O)C[C@@H]12 [EDP-305]
[4]; High dose (30 mg/kg)
  fibrogenic gene expression: decreased
[4]; High-dose (30 mg/kg) daily PO from the beginning of week 6
  fibrosis progression on histopathology: mg/kg) halted

## CSc1ccc(C(=O)/C=C/c2cc(C)c(OC(C)(C)C(=O)O)c(C)c2)cc1 [Elafibranor]
[5]
  fibrosis severity: reduced
  histopathological score of hepatic steatosis: reduced
  histopathological score of inflammation: reduced

## C[C@H](NC(=O)C(=O)Nc1ccccc1C(C)(C)C)C(=O)N[C@@H](CC(=O)O)C(=O)COc1c(F)c(F)cc(F)c1F [Emricasan]
[6]
  HOMA-IR: Decreased
  ballooning on histopathology: Improved
  fibrosis on histopathology: Improved
  fibrotic and inflammatory gene signature: Decreased
  inflammation on histopathology: Improved
  serum level of ALT: Decreased
  serum level of AST: Decreased
  serum level of cholesterol: Decreased
  serum level of glucose: Decreased

## O=C(O)CCCc1cc2cc(Cl)ccc2n1S(=O)(=O)c1ccc2ncsc2c1 [Lanifibranor]
[7]
  inflammation on histopathology: prevented
  liver triglyceride levels: decreased
  plasma alanine aminotransferase levels: reduced plasma
  serum triglyceride levels: decreased
  steatosis on histopathology: prevented

## CC(C)c1cc(Oc2c(Cl)cc(-n3nc(C#N)c(=O)[nH]c3=O)cc2Cl)n[nH]c1=O [Resmetirom]
[8]
  fibrosis in treated livers: No detectable
  inflammation in treated livers: No detectable
  insulin sensitivity: Improved
  reduced serum level of ALT: (46%), free
  reduced serum level of cholesterol: (67%).
  steatosis in treated livers: No detectable

## CCO[C@@H](Cc1ccc(OCCn2c(C)ccc2-c2ccc(SC)cc2)cc1)C(=O)O [Saroglitazar]
[9]; 3 mg/kg PO for 12 weeks
  ballooning: reduced or no
  hepatic steatosis: reversal of
  vacuolation: reduced or no
[9]; 3 mg/kg
  Liver lipid (TG) accumulation attenuated: 79%
  hepatic fibrogenic and inflammatory gene expression: also reduced
  liver TNFα levels: also reduced
  liver collagen content attenuated: 41%
  reduced serum level of ALT: (60%), AST
  reduced serum level of MCP1: MCP1 (45%).

## Cc1cc(F)c(C(=O)Nc2cccc(-c3nncn3C(C)C)n2)cc1-n1cnc(C2CC2)c1 [Selonsertib]
[10]
  Reduced liver cholesterol: 45%
  Reduced serum cholesterol: 14%
  serum bile acids: reduced serum
  serum cholate reduction: cholate (91%
  serum deoxycholate reduction: (90% reduction).
[10]; [19]
  fibrosis: reduced liver
  insulin resistance: reduced liver
  liver steatosis: reduced liver

## O=C(O)c1cc(F)c2nc(N3[C@@H]4CC[C@H]3C[C@@H](OCc3c(-c5ccccc5OC(F)(F)F)noc3C3CC3)C4)sc2c1 [Tropifexor]
[11]
  fibrosis: reduced
  hepatic inflammation cell populations: reduced mRNA
  inflammation: reduced
  mRNA levels of fibrogenic markers: reduced mRNA
  steatosis: reduced

## Cc1cc(OCP2(=O)OCC[C@@H](c3cccc(Cl)c3)O2)cc(C)c1Cc1ccc(O)c(C(C)C)c1 (some centres unmarked) [VK2809]
[12]
  NAS score mean improvement: score (a 40%
  all subcomponents of NAS (inflammation, ballooning, and steatosis): Improvements
  liver content of cholesterol: improved liver
  liver content of collagen: improved liver
  liver content of hydroxyproline: improved liver
  liver content of triglyceride: improved liver
  liver fibrosis on histopathology: improved NAS
  plasma cholesterol: reduced plasma
  plasma triglycerides: reduced plasma

## CCCCCCCCCCC[C@@H](C[C@@H]1OC(=O)[C@H]1CCCCCC)OC(=O)[C@H](CC(C)C)NC=O [orlistat]
NAFLD/NASH; in vivo
  benefit compared to diet and exercise (weight loss alone): no significant benefit

## CC(=O)CCCCn1c(=O)c2c(ncn2C)n(C)c1=O [pentoxifylline]
NAFLD/NASH
  benefit in NAFLD/NASH: unsuccessfully or with only modest benefit

## CCc1ccc(CCOc2ccc(CC3SC(=O)NC3=O)cc2)nc1 (centres unmarked) [pioglitazone]
[13]
  risk of weight gain, edema, congestive heart failure, and osteoporotic fractures: significantly increased risk

## O=C1O[C@H]([C@@H](O)CO)C(O)=C1O [vitamin C]
NAFLD/NASH
  benefit in NAFLD/NASH: unsuccessfully or with only modest benefit

## Cc1c(C)c2c(c(C)c1O)CC[C@@](C)(CCC[C@H](C)CCC[C@H](C)CCCC(C)C)O2 [vitamin E, α-tocopherol]
NAFLD/NASH
  benefit in NAFLD/NASH: unsuccessfully or with only modest benefit

## Aldafermin
[14]; delivered by AAV at Week 16
  hepatic expression of inflammatory and fibrotic biomarkers: decreased
  hepatocellular fibrosis: reduced
  serum level of ALT: reduced serum
  serum level of AST: reduced serum
  spleen weight: reduced liver
  steatosis: not impact
[14]; delivered by adeno-associated viral vector (AAV) at Week 16
  liver weight: reduced liver

## Belapectin
[15]; 60 mg/kg IV twice a week for 4 weeks
  expression of pathological indicators including iNOS, CD36, and a-smooth muscle actin: reduced the
[15]; 60 mg/kg IV twice a week for 4 weeks, early treatment cohort (from Week 6)
  fat deposition: Decreased fat
[15]; [20]
  hepatocellular ballooning: Decreased fat
  inflammatory infiltrate: Decreased fat
[15]; early treatment cohort (from Week 6), significant
  NAS score: improved NAS
[15]; late treatment cohort (from Week 9), did not reach significance
  NAS versus vehicle control: improvement

## Pegbelfermin
[16]; [21]
  mean grade for hepatocellular ballooning: decreased
  mean grade for lobular inflammation: decreased
  mean grade for steatosis: decreased
[16]; SC for 2 weeks
  decrease of mean serum fibrosis biomarker Pro-C3: C3 by 44%
  liver triglycerides: improved
  liver/body weight ratio: (−20%), as well
  plasma triglycerides: improved
  whole blood glucose: glucose (−30%),

## semaglutide
[17]; [22]
  NAS overall score: decreased liver
  liver weight: decreased liver
[17]; ALT-801 5 or 10 nmol/kg
  liver TG level: decreased liver
  liver content of fibrosis markers: decreased liver
  liver total cholesterol level: decreased liver
  plasma ALT level: decreased liver
Patients with NASH; 0.1-mg group
  percentage of patients with NASH resolution and no worsening of fibrosis: 40%
Patients with NASH; 0.2-mg group
  percentage of patients with NASH resolution and no worsening of fibrosis: 36%
Patients with NASH; 0.4-mg group
  mean percent weight loss: 13%
  percentage of patients with NASH resolution and no worsening of fibrosis: 59%
Patients with NASH; daily subcutaneous
  percentage of patients with an improvement in fibrosis stage vs placebo: did not show a significant between-group difference
Patients with NASH; human, in vivo
  incidence of constipation: 22%
  incidence of nausea: 42%
  incidence of vomiting: 15%
  patients with malignant neoplasms: 1%
  patients with neoplasms (benign, malignant, or unspecified): 15%
